We go through 29 compounds from patent US20230339937A1, “CONDENSED RING COMPOUNDS THAT INHIBIT H-PGDS” (SATO PHARMACEUTICAL CO., LTD., priority 2020, published 2023).

This assay addresses T1, Recombinant human H-PGDS (Homo sapiens, UniProt O60760).
T1 construct: made in house; host or cells: E. coli
The experiment in a line: H-PGDS inhibitory activity (prostaglandin D2 production from prostaglandin H2, measured by LC-MS/MS). It counts as biochemical. Particulars: recombinant human H-PGDS 1.0 nM expressed in E. coli; prostaglandin H2 25 μM; preincubated 15 minutes on ice, reacted on ice for 1 minute; concentration that inhibits prostaglandin D2 production by 50%. The procedure, abridged: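 Recombinant human H-PGDS (E. coli-expressed, 1.0 nM final) preincubated with compound 15 min on ice in 20 mM Tris-HCl pH 8.0, 2 mM MgCl2, 2 mM GSH, 0.5 mg/mL γ-globulin. Reaction with 25 µM PGH2 run 1 min on ice, stopped with FeCl2/citric acid, PGD2 quantified by LC-MS/MS. Activity expressed as % of DMSO control after subtracting non-enzymatic PGD2.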

T1 sequence (O60760 whole entry): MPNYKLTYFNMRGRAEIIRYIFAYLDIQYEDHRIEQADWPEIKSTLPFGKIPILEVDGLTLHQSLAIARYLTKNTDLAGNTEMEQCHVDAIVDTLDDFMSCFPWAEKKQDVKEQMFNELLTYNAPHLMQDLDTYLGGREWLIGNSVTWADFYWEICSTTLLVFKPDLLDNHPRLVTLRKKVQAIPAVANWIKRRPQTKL

Consider `O=C(NC1CCN(c2ncccn2)CC1)c1ccc(-c2nccc3[nH]ccc23)cc1` [Example 336, N-[1-(pyrimidin-2-yl)piperidin-4-yl]-4-(1H-pyrrolo[3,2-c]pyridin-4-yl)benzamide], for which the IC50 was 0.94 nM.

Take `CC(O)[C@@H]1CC[C@@H](NC(=O)c2ccc(-c3nccc4occc34)cc2)CO1` (stereo partly drawn) [Example 212, 4-(furo[3,2-c]pyridin-4-yl)-N-[(3R,6S)-6-(1-hydroxyethyl)tetrahydro-2 H-pyran-3-yl]benzamide]: the IC50 was 3.8 nM.

On to `O=C(N[C@H]1C[C@@H](O)C1)c1ccc(-c2nccc3occc23)cc1` [Example 269, 4-(furo[3,2-c]pyridin-4-yl)-N-(cis-3-hydroxycyclobutyl)benzamide], for which the IC50 turned out to be 5.2 nM.

Turning to `CO[C@H]1CC[C@H](NC(=O)c2ccc(-c3nccc4occc34)cc2)CC1` [Example 285, 4-(furo[3,2-c]pyridin-4-yl)-N-(trans-4-methoxycyclohexyl)benzamide], the IC50 was 2 nM.

Regarding `CC(=O)NCCNC(=O)c1ccc(-c2nccc3[nH]ccc23)cc1` [Example 28, N-(2-acetamidoethyl)-4-(1H-pyrrolo[3,2-c]pyridin-4-yl)benzamide], the IC50 was 1.4 nM.

As to `C[C@]1(O)CC[C@H](NC(=O)c2ccc(-c3nccc4occc34)c(F)c2)CC1` [Example 346, 3-fluoro-4-(furo[3,2-c]pyridin-4-yl)-N-(trans-4-hydroxy-4-methylcyclohexyl)benzamide], the IC50 is 2 nM.

Turning to `O=C(N[C@H]1CC[C@H](CO)CC1)c1ccc(-c2nccc3occc23)cc1` [Example 120, 4-(furo[3,2-c]pyridin-4-yl)-N-[trans-4-(hydroxymethyl)cyclohexyl]benzamide], the IC50 is 3.3 nM.

Regarding `O=C(N[C@H]1CC[C@H](OC(F)F)CC1)c1ccc(-c2nccc3occc23)cc1` [Example 263, N-[trans-4-(difluoromethoxy)cyclohexyl]-4-(furo[3,2-c]pyridin-4-yl)benzamide], the IC50 came to 4.2 nM.

As to `CCCn1nnnc1N1CCC(NC(=O)c2ccc(-c3nccc4occc34)cc2)CC1` [Example 240, 4-(furo[3,2-c]pyridin-4-yl)-N-[1-(1-propyl-1H-tetrazol-5-yl)piperidin-4-yl]benzamide], the IC50 came out at 1.6 nM.

As for `CCCCNC(=O)c1ccc(-c2nccc3[nH]ccc23)cc1` [Example 7, N-butyl-4-(1H-pyrrolo[3,2-c]pyridin-4-yl)benzamide], the IC50 was determined as 1.4 nM.

As to `CC(C)n1nnnc1N1CCC(NC(=O)c2ccc(-c3nccc4occc34)cc2)CC1` [Example 242, 4-(furo[3,2-c]pyridin-4-yl)-N-[1-(1-isopropyl-1H-tetrazol-5-yl)piperidin-4-yl]benzamide], the IC50 is 2 nM.

In the case of `CC(C)(O)c1cnc(N2CC[C@H](NC(=O)c3ccc(-c4nccc5occc45)cc3)C2)nc1` [Example 200, (S)-4-(furo[3,2-c]pyridin-4-yl)-N-{1-[5-(2-hydroxypropan-2-yl)pyrimidin-2-yl]pyrrolidin-3-yl}benzamide], the IC50 was 1.1 nM.

On to `COC(=O)[C@H]1CC[C@H](NC(=O)c2ccc(-c3nccc4occc34)cc2)CC1` [Example 261, Methyl trans-4-[4-(furo[3,2-c]pyridin-4-yl)benzamide]cyclohexane-1-carboxylate], for which the IC50 turned out to be 1.6 nM.

In the case of `Cn1cncc1CNC(=O)c1ccc(-c2nccc3[nH]ccc23)cc1` [Example 41, N-[(1-methyl-1H-imidazol-5-yl)methyl]-4-(1H-pyrrolo[3,2-c]pyridin-4-yl)benzamide], the IC50 was found to be 0.63 nM.

With `O=C(N[C@H]1CC[C@H](CO)CC1)c1ccc(-c2nccc3[nH]ccc23)cc1` [Example 3, N-[trans-4-(hydroxymethyl)cyclohexyl]-4-(1H-pyrrolo[3,2-c]pyridin-4-yl)benzamide], the IC50 is 0.63 nM.

Consider `O=C(NC1CCN(c2ccc(CO)cn2)CC1)c1ccc(-c2nccc3occc23)cc1` [Example 169, 4-(furo[3,2-c]pyridin-4-yl)-N-{1-[5-(hydroxymethyl)pyridin-2-yl]piperidin-4-yl}benzamide], for which the IC50 is 3 nM.

Regarding `COCCCNC(=O)c1ccc(-c2nccc3[nH]ccc23)cc1` [Example 24, N-(3-methoxypropyl)-4-(1H-pyrrolo[3,2-c]pyridin-4-yl)benzamide], the IC50 was found to be 0.56 nM.

Regarding `O=C(NCC1CCOC1)c1ccc(-c2nccc3[nH]ccc23)cc1` (centres unmarked) [Example 21, 4-(1H-pyrrolo[3,2-c]pyridin-4-yl)-N-[(tetrahydrofuran-3-yl)methyl] benzamide], the IC50 is 0.82 nM.

As to `N#Cc1cnc(N2CC[C@H](NC(=O)c3ccc(-c4nccc5occc45)cc3)C2)nc1` [Example 201, (S)—N-[1-(5-cyanopyrimidin-2-yl)pyrrolidin-3-yl]-4-(furo[3,2-c]pyridin-4-yl)benzamide], the IC50 was 1.2 nM.

Turning to `O=C(N[C@@H]1CCC[C@@H](O)C1)c1ccc(-c2nccc3occc23)cc1` (relative stereo) [Example 266, 4-(furo[3,2-c]pyridin-4-yl)-N-(trans-3-hydroxycyclohexyl)benzamide], the IC50 stood at 3.8 nM.

Regarding `O=C(N[C@H]1CCN(c2cc(Cl)ncn2)C1)c1ccc(-c2nccc3occc23)cc1` [Example 227, (S)—N-[1-(6-chloropyrimidin-4-yl)pyrrolidin-3-yl]-4-(furo[3,2-c]pyridin-4-yl)benzamide], the IC50 was 1.4 nM.

With `O=C(N[C@H]1CCN(c2ncccn2)C1)c1ccc(-c2nccc3occc23)cc1` [Example 191, (S)-4-(furo[3,2-c]pyridin-4-yl)-N-[1-(pyrimidin-2-yl)pyrrolidin-3-yl]benzamide], the IC50 was found to be 0.63 nM.

For `Cc1coc2ccnc(-c3ccc(C(=O)N[C@H]4CC[C@H](C(C)(C)O)CC4)cc3)c12` [Example 130, N-[trans-4-(2-hydroxypropan-2-yl)cyclohexyl]-4-(3-methylfuro[3,2-c]pyridin-4-yl)benzamide], the IC50 amounted to 6.8 nM.

With `CC[C@]1(O)CC[C@H](NC(=O)c2ccc(-c3nccc4occc34)cc2)CC1` [Example 289, N-(trans-4-ethyl-4-hydroxycyclohexyl)-4-(furo[3,2-c]pyridin-4-yl)benzamide], the IC50 worked out at 1.6 nM.

On to `CC(N[C@H]1CC[C@H](NC(=O)c2ccc(-c3nccc4occc34)cc2)CC1)C(F)F` (stereo partly drawn) [Example 302, N-{trans-4-[(1,1-difluoropropan-2-yl)amino]cyclohexyl}-4-(furo[3,2-c]pyridin-4-yl)benzamide], for which the half-maximal inhibitory concentration (IC50) turned out to be 3.2 nM.

In the case of `CC(C)(O)[C@H]1CC[C@H](NC(=O)c2ccc(-c3nc(CO)cc4occc34)c(F)c2)CC1` [Example 322, 3-fluoro-4-[6-(hydroxymethyl)furo[3,2-c]pyridin-4-yl]-N-[trans-4-(2-hydroxypropan-2-yl)cyclohexyl]benzamide], the IC50 turned out to be 3.2 nM.

`O=C(NCc1cccc(OC(F)F)c1)c1ccc(-c2nccc3[nH]ccc23)cc1` [Example 35, N-[3-(difluoromethoxy)benzyl]-4-(1H-pyrrolo[3,2-c]pyridin-4-yl)benzamide]: the half-inhibitory concentration (IC50) turned out to be 1.6 nM.

Take `Cn1cc(N2CCC(NC(=O)c3ccc(-c4nccc5occc45)cc3)CC2)cn1` [Example 252, 4-(furo[3,2-c]pyridin-4-yl)-N-[1-(1-methyl-1H-pyrazol-4-yl)piperidin-4-yl]benzamide]: the IC50 was 1.2 nM.

In the case of `CCCCCCNC(=O)c1ccc(-c2nccc3[nH]ccc23)cc1` [Example 6, N-hexyl-4-(1H-pyrrolo[3,2-c]pyridin-4-yl)benzamide], the IC50 came to 1.8 nM.

As a reminder, the IC50 is the concentration that inhibits the measured activity by half.
